In patent US11046720B2, “Dimethylphosphine oxide compound” (GUIZHOU INOCHINI TECHNOLOGY CO., LTD, priority 2018, dated 2021):
Where two headings read alike, the source gives them in different places.

Tests used:
[1] = molecular target: T1, LRRK2 full-length human recombinant protein (Homo sapiens, UniProt Q5S007); assay: In vitro evaluation of LRRK2 kinase inhibitory activity (HTRF / TR-FRET, LRRKtide); assay type: biochemical; conditions: 57 μM ATP, 0.4 uM Fluorescein-ERM (LRRKtide) peptide
T1 construct: express LRRK2 full-length human recombinant protein in Sf9 cells of insects; GST; made in house; host or cells: Sf9 insect cells (baculovirus)
Description: Experimental purpose: to detect transfer of energy signals (ratio of fluorescence signals: […]) after the phosphate group of phosphorylated Fluorescein-ERM (LRRKtide) peptide binds with LanthaScreen® Tb-pERM (pLRRKtide) antibody using homogeneous time-resolved fluorescence. Calculate IC50 for LRRK2 inhibition of the compound to be assayed.
1. Reaction solution: 10 mM 4-(2-hydroxyethyl) piperazine-1-ethanesulfonic acid (pH 7.5); 2 mM magnesium chloride; 0.5 mM glycol-bis-(2-aminoethylether)-N; 0.002% primary alcohol ethoxylate, 1 mM dithiothreitol and 1% DMSO;
2. Assay solution: TR-FRET Dilution Buffer;
3. LRRK2 human recombinant protein: use GST tag and baculovirus to express LRRK2 full-length human recombinant protein in Sf9 cells of insects;
4. Substrate: 0.4 uM Fluorescein-ERM (LRRKtide) peptide; 57 uM ATR
Resonance energy transfer of Fluorescein-ERM (LRRKtide) peptide and LanthaScreen® Tb-pERM (pLRRKtide) antibody between […].
1. Add DMSO solution of the compound to be assayed through the Echo550 non-contact nano-liter acoustic droplet ejection system;
2. Prepare mixed solution of enzyme and polypeptide with freshly prepared reaction solution. Add the mixed solution to the reaction cavity and warm it up at room temperature for 20 minutes in advance;
3. Add 57 μM ATP to initiate reaction, which lasts for 90 minutes at room temperature;
4. Add fluorescein-ERM (LRRKtide) peptide, LanthaScreen® Tb-pERM (pLRRKtide) antibody and 10 mM ethylene diamine tetraacetic acid to the assay system. The reaction lasts for 60 minutes at room temperature. Detect yellow light signals with Em/Ex 520/485.
5. Measure enzyme activity inhibition relative to DMSO blank control group according to the signal ratio, and calculate IC50 by fitting curves with the software XLfit5.

[2] = Pharmacokinetic evaluation in C57BL/6 mice, brain tissues and plasma; assay type: in vivo; conditions: oral, 5 mg/kg; for Kp / AUC(0-t) / half-life / Tmax / Cmax: male, C57BL/6, mouse; for Kp: brain/plasma, read-out: drug concentration ratio between brain tissues and plasma (B/P)
Description: Experimental purpose: to study pharmacokinetics of the compounds in vivo in C57BL/6 mice—drug concentration ratio between brain tissues and plasma
Experimental materials: C57BL/6 mice (male, 8 weeks old, weight: 25 g-30 g)
Assay Pharmacokinetic Features of Glires after they are Orally Administered the Compounds According to Standard Schemes.
In the experiment, the candidate compounds are prepared into 1 mg/mL mixed suspension, and mice are orally administered once. The menstruum for oral administration is 10% dimethyl sulfoxide (DMSO)/10% polysorbate/20% PEG-400 aqueous solution. This project uses male C57BL/6 mice, which are orally administered drugs at a dose of 5 mg/kg. Collect the whole brain 0.5, 1, 2 and 4 hours after the administration. Homogenize tissue samples with 15 mM [[…] (pH=7.4) buffer and methanol (volume ratio: 2:1)] at a ratio of 1:5 (w:v). Equally divide the homogenate into 2 samples: one for assay and the other for standby use. Besides, collect plasma 0.5, 1, 2 and 4 hours after administration. Centrifugate with 3,000 g relative centrifugal force within half an hour after collection at about 4° C. for 15 minutes to separate supernatant and obtain plasma samples. Store the plasma samples in polypropylene tubes; rapidly freeze them on dry ice and keep them at −80° C. till LC/MS/MS assay. Add internal standard precipitated protein of acetonitrile solution and fully mix them to extract supernatant samples via centrifugation. Quantitatively analyze plasma concentration by LC-MS/MS assay and calculate pharmacokinetic parameters such as maximal concentration (Cmax), half-life (T1/2), maximal time (Tmax), drug concentration in different tissues after administration (AUC0-last), and drug concentration ratio between brain tissues and plasma (B/P).

LRRK2 (pSer935) = molecular target: T2, LRRK2 (pSer935) (Homo sapiens, UniProt Q5S007); assay: In vitro evaluation of inhibitory activity for LRRK2 cell (pSer935), 293T cells transfected with pcmv-flag-lrrk2, MSD; assay type: cell-based
T2 construct: expressed in transfected cells; host or cells: 293T cells
Description: Take 293T cells out of liquid nitrogen and put them in water at 37° C. After ice has fully thawed, transfer the cells to 5 mL warm culture medium. Discard the supernatant through centrifugation, and culture the suspended cells in the culture medium as new cells.
Culture the 293T cells in the culture medium for two to three days.
Plant 1.4×10^6/293T cells on a culture plate. After two days of culturing, cells will multiply to 5×10^6, so planting cells on N+1 plates is enough for performing experiments on N 96-well plates.
1) Add 5 μl (0.5 μg/μl) pcmv-flag-Irrk2 to 145 μl DMEM culture medium, and mix them evenly with a straw;
6) Incubate the culture plate inside a humidified incubator with 5% carbon dioxide for 20 to 24 hours at 37° C.
3. (Day 3) Plant the 293T Cells on the 96-Well Plate;
3) Transfer 50 μl inhibitor containing culture medium to the cell culture plate;
4) Incubate the culture plate inside a humidified incubator with 5% carbon dioxide for 20 to 24 hours at 37° C.;
5) Extract 300 μl inhibitor containing culture medium with a dropper. Take 200 μl inhibitor containing culture medium and add 100 μl decomposer into the culture medium. After the plate has been sealed, it shall be shaken for 30 minutes at 4° C.
1) Add 2 μg/25 μl labeled antibody to the MSD plate to incubate for 2 hours; (50 μl 3.9 μg/μl Flag antibody+2.5 ml fetal bovine serum per plate). Maintain centrifugation for 10 s (1,000 rpm);
5) Transfer 12.5 μl lysis buffer and 12.5 μl cell lysis buffer to the MSD plate to incubate for 1 hour at room temperature;
7) Dilute ps935 antibody at 1:200, and add 25 μl antibody to incubate for 1 hour;
9) Dilute goat anti-rabbit antibody at 1:500, and add 25 μl antibody to the incubation plate to incubate for 1 hour;
13) After incubation for about 3 minutes, read data over 15 minutes.

[3] = test system: LRRK2 phosphorylation in brain tissues; assay: In vivo pharmacological experiment: LRRK2 phosphorylation in brain tissues of mice (western blot); parameters: species or system C57BL/6J mice; conditions: oral, 10 mg/kg, once, 1 hour after administration
Description: Animals: C57BL/6J mice (male, 6-7 weeks old, weight: 20 g-22 g).
Grouping: Weigh all mice one day ahead of the experiment and divide them into 6 groups at random according to their weight, with 4 mice in each group. Exclude too heavy and too light mice, to ensure that average weight of all groups is the same.
The animals of each group are orally administered menstruum or the compound to be assayed in chronological order as shown in Table 4. One mouse is administered every 2 minutes. 1 hour after administration, all animals are successively euthanized with carbon dioxide in chronological order.
(1) After protein determination of brain tissue samples by BCA, apply 4% to 15% precast gel in an equal amount of protein samples.
(3) Perform protein electrophoresis at 200 V for 30 minutes. Then, use Midi PVDF Transfer Packs for membrane transfer for 7 minutes. Next, block them with TBS Blocker at room temperature for 1 hour.
(4) Prepare 5% milk with skimmed milk powder. Then, formulate antibodies P-LRRK2 (add 20 μl antibody to 5 mL 5% milk at 1:250), total-LRRK2 (add 10 μl antibody to 5 ml 5% skimmed milk at 1:500), p-Rabl0 (add 10 μl antibody to 5 mL 5% skimmed milk at 1:500) and p-actin (add 5 μl antibody to 5 mL 5% milk at 1:1000), and incubate the antibodies overnight. (5) Recycle the primary antibodies and rinse membranes with TBS for three times, 10 minutes each time. […]

[4] = brain tissues, read-out: AUC0-last Brain Tissues
[5] = brain tissues, read-out: T1/2 Brain Tissues (converted)
[6] = brain tissues, read-out: Tmax Brain Tissues
[7] = plasma, read-out: AUC0-last Plasma
[8] = plasma, read-out: T1/2 Plasma (converted)

T1 sequence (Q5S007 whole entry): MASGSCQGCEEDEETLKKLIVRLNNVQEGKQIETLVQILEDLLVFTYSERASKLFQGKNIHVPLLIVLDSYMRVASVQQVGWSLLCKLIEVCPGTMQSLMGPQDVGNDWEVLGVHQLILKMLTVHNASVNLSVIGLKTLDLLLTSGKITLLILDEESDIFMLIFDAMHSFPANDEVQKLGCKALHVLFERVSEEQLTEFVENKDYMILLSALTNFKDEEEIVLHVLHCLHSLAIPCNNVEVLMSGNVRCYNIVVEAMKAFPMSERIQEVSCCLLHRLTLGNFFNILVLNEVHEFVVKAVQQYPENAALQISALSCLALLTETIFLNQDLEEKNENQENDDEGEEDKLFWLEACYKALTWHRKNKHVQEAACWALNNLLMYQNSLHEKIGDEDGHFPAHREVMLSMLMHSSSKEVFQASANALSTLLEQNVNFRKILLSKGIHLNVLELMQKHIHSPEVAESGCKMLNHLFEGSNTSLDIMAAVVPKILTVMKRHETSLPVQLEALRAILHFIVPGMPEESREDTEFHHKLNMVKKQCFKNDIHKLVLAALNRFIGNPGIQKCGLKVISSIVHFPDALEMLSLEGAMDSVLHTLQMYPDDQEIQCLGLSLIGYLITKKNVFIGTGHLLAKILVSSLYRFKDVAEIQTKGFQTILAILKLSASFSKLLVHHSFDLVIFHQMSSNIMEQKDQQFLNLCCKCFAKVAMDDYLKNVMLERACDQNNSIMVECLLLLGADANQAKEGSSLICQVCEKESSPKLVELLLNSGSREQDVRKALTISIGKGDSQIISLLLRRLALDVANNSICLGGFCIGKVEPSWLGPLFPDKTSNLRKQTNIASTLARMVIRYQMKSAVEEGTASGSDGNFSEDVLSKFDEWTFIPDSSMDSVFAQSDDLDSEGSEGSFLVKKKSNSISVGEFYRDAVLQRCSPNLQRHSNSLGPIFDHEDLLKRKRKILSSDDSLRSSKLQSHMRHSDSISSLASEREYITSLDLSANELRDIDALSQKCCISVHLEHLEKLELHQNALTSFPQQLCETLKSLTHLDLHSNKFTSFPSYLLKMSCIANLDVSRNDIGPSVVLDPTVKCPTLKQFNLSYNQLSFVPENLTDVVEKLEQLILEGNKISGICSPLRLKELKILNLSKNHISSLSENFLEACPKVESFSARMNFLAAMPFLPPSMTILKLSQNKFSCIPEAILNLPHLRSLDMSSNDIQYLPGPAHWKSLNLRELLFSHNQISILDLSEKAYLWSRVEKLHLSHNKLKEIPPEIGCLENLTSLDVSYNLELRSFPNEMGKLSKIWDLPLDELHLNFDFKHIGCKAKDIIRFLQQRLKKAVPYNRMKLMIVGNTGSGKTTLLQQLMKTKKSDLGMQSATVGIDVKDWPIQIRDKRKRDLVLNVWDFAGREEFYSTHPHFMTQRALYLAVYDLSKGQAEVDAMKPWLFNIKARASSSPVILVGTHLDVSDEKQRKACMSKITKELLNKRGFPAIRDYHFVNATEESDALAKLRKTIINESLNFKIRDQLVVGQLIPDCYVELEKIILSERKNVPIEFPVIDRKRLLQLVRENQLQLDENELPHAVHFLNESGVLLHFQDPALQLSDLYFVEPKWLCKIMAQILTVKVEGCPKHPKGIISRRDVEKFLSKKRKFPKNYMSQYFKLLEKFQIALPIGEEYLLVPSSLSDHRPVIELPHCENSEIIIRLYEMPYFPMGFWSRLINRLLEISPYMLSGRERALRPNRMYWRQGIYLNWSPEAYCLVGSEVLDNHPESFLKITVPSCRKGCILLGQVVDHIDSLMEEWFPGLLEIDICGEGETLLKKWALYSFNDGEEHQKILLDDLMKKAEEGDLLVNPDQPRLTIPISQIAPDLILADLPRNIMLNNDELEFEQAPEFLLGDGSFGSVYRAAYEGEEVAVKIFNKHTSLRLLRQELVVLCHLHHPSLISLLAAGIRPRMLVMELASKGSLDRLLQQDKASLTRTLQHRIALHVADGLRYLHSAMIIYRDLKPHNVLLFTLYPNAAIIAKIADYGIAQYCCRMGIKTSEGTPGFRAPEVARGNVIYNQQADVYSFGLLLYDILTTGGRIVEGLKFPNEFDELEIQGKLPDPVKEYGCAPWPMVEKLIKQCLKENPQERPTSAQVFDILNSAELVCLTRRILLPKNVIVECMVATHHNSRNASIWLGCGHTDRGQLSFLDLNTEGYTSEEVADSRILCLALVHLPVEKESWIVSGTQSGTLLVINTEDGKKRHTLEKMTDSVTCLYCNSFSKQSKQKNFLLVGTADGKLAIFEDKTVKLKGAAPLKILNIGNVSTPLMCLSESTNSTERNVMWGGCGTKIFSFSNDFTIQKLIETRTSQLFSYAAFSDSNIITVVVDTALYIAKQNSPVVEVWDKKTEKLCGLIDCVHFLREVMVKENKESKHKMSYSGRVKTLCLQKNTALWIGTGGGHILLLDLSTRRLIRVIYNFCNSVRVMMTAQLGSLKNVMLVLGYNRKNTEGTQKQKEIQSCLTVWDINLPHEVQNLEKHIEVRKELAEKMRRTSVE
T2 sequence (Q5S007 whole entry): as above

Row | SMILES | IC50 [1] [µM] | Kp [2] | AUC(0-t) [2, 4] [µM·h] | Tmax [2, 6] [min] | Cmax ([2]; plasma) [nM] | AUC(0-t) [2, 7] [µM·h] | Tmax ([2]; plasma, read-out: Tmax Plasma) [min] | Cmax Brain Tissues ([2]; brain tissues) [nM] | IC50 (LRRK2 (pSer935)) [µM] | other results
1 | COc1nc(N2CC3(COC3)C2)ccc1Nc1ncc(Cl)c(Nc2ccccc2P(C)(C)=O)n1 [Embodiment 12] | 0.0016 | 0.14 | 0.476 | 30 | 3630 | 3.46 | 30 | 576 | 0.0037 | half-life [2, 5]: 23.4 min; half-life [2, 8]: 36 min
2 | COc1nc(N2CC3(C2)CC(F)(F)C3)ccc1Nc1ncc(Cl)c(Nc2ccccc2P(C)(C)=O)n1 [Embodiment 13] | 0.0091 | 0.52 | 1.16 | 30 | 1200 | 2.25 | 30 | 726 |  | half-life [2, 5]: 43.2 min; half-life [2, 8]: 58.8 min
3 | COc1nc(N2CC3(CCC3)C2)ccc1Nc1ncc(Cl)c(Nc2ccccc2P(C)(C)=O)n1 [Embodiment 14] | 0.0152 | 0.96 | 4.2 | 60 | 1650 | 4.39 | 60 | 2042 |  | 
4 | COc1nc(N2CC3(C2)CC3(F)F)ccc1Nc1ncc(Cl)c(Nc2ccccc2P(C)(C)=O)n1 [Embodiment 15] | 0.0074 | 0.54 | 2.15 | 30 | 2150 | 4.02 | 30 | 1436 |  | half-life [2, 5]: 37.8 min; half-life [2, 8]: 45 min
5 | COc1ncc(N2CC3(CCOC3)C2)cc1Nc1ncc(Cl)c(Nc2ccccc2P(C)(C)=O)n1 [Embodiment 16] | 0.0106 |  |  |  |  |  |  |  |  | 
6 | COc1ncc(N2CCC3(CCOCC3)C2)cc1Nc1ncc(Cl)c(Nc2ccccc2P(C)(C)=O)n1 [Embodiment 17] | 0.0277 |  |  |  |  |  |  |  |  | 
7 | COc1ncc(N2CC3(COC3)C2)cc1Nc1ncc(Cl)c(Nc2ccccc2P(C)(C)=O)n1 [Embodiment 18] | 0.0046 |  |  |  |  |  |  |  | 0.0861 | 
8 | COc1ncc(N2CC3(CCOCC3)C2)cc1Nc1ncc(Cl)c(Nc2ccccc2P(C)(C)=O)n1 [Embodiment 19] | 0.0119 |  |  |  |  |  |  |  |  | 
9 | COc1c(Nc2ncc(Cl)c(Nc3ccccc3P(C)(C)=O)n2)ccnc1N1CC2(CCOC2)C1 [Embodiment 20] | 0.0016 |  |  |  |  |  |  |  | 0.022 | 
10 | COc1c(Nc2ncc(Cl)c(Nc3ccccc3P(C)(C)=O)n2)ccnc1N1CC2(CCC2)C1 [Embodiment 21] | 0.0368 |  |  |  |  |  |  |  |  | 
11 | COc1c(Nc2ncc(Cl)c(Nc3ccccc3P(C)(C)=O)n2)ccnc1N1CC2(COC2)C1 [Embodiment 22] | 0.0026 |  |  |  |  |  |  |  | 0.044 | 
12 | CCNc1nc(Nc2cc(F)c(C(=O)N3CCOCC3)cc2OC)ncc1C(F)(F)F [GNE-7915] |  |  |  |  |  |  |  |  |  | inhibition of LRRK2 phosphorylation in brain tissues [3]: inhibits FRRK2 phosphorylation
